From patent US7208266B2, “Endogenous coagulation activator compounds —use in exploring endogenous coagulation” (Societe Diagnostica-Stago, priority 2001, dated 2007)

Tests used:
Assay type in all cases: biochemical
[1] = tested on: endogenous coagulation; experiment: APTT coagulation time, reagents from amides or esters of gallic acid (Example 2); conditions: gallic acid derivative 100 μM
[2] = tested on: endogenous coagulation; experiment: as above; conditions: for Coagulation time, CCN / Coagulation time, CCP / Coagulation time, Heparins Batch 0811 / Coagulation time, Lupus Batch 021 / Coagulation time, Pool N LIK 800 / Coagulation time, Heparins Batch 1706: gallic acid derivative 100 μM
Description: Thus, the invention also concerns a method for measuring the activated partial thromoboplastin time (APTT) comprising the steps of: • bringing a platelet-depleted plasma sample into contact with compounds or compositions in accordance with the invention, in the presence of substitutes for the phospholipids of the platelet membrane, under conditions that allow activation of the endogenous coagulation pathway; • adding Ca^2+ ions in a quantity equivalent to the quantity of these ions that have been complexed in the plasma sample; • measuring the time required to transform fibrinogen into fibrin.
In particular, within the context of carrying out the above method, the plasma sample is constituted by a platelet-depleted plasma and a coagulation activator is incubated with the plasma for a period of about 2 to 5 minutes, at 37° C. The phospholipid membrane substitutes are either added from the start of the reaction, or mixed with the activator, or added individually during the reaction.
Then the calcium ions are added, for example in the form of calcium chloride in a concentration in the range 20 mM to 25 mM. The time required for fibrin formation is then measured.
In the next example, the coagulation times for different plasmas were determined from APTT reagents obtained from amides or esters of gallic acid. • normal plasmas=pool of equivalent quantities of plasmas from normal subjects; • CCN=coag. control normal: control plasma, normal level; • CCP=coag. control patho: control plasma, disease level; • heparins=plasmas from patient receiving an anticoagulating treatment based on non-fractionated heparin in the form of sodium or calcium salts; • lupus=plasma from a patient presenting with Lupus anticoagulant Syndrome; • def.f VIIIc=plasma from a patient presenting with a f VIIIc deficit (haemophilia A).

[3] = tested on: endogenous coagulation; experiment: APTT coagulation time versus ethylene glycol gallate concentration (Example 6)
Procedure: The coagulating activity of an APTT reagent requires the joint action of two active principles: • a molecule activating the contact phase of the endogenous pathway. In fact, this was ethylene glycol gallate activated by heating to 80° C.; • a substitute for the phospholipids of the platelet membrane, cephaline, obtained by extracting rabbit brains with chloroform;
Optimum activity of the APTT reagent thus constituted depends on the concentrations of ethylene glycol gallate and cephaline.
The following tables show the results obtained for representative plasmas for different disorders and for some controls.

[4] = tested on: endogenous coagulation; experiment: APTT coagulation time, activation kinetics of ethylene glycol gallate heated at 80° C. (Example 3); conditions: 500 μM in solution buffered to pH 7.00, after heating for 24 hours at 80° C.
Procedure: After heating for 24 hours at 80° C., 500 μM of ethylene glycol gallate in solution buffered to a pH of 7.00 became active in an APTT coagulation test.
The procoagulating activity of the ethylene glycol gallate solution was compared with that of a reference reagent: CK-PREST, an APTT reagent in which the activator is kaolin. The instrument used to measure the coagulation time was an automated STA Diagnostica Stago haemostasis instrument (series n° 307).
The test plasmas were quality control plasmas:
CCN=coag control normal; CCP=coag control patho, batch n° 980901.
APTT reagent produced=ethylene glycol gallate, 500 μM, oxidised at 80° C.+Tricine, […], pH 7.00+cephaline (substitute for platelet phospholipids).

[5] = Ethylene Glycol gallate 1000 μM

Molecule: N[C@@H](CO)C(=O)O [H2N—CH—(CH2OH)—COOH]
- Coagulation time, f VII def 25% [1]: 153.0 s
- Coagulation time, CCN [2]: 210.9 s
- Coagulation time, CCP [2]: 189.3 s
- Coagulation time, Heparins Batch 0811 [2]: >300.0 s
- Coagulation time, Lupus Batch 021 [2]: 232.6 s
- Coagulation time, Pool N LIK 800 [2]: 245.0 s

Molecule: O=C(OCCO)c1cc(O)c(O)c(O)c1 [ethylene glycol gallate]
- Coagulation time Control batch n° 80901 Normal ([3]; Ethylene Glycol gallate 10 μM): 130.6 s
- Coagulation time Control batch n° 80901 Path ([3]; Ethylene Glycol gallate 10 μM): >140.0 s
- Coagulation time Plasma (LA) MA 030 ([3]; Ethylene Glycol gallate 10 μM): >140.0 s
- Coagulation time Plasma def f VIIIc ([3]; Ethylene Glycol gallate 10 μM): 121.9 s
- Coagulation time Plasmas Heparins Batch 1635 ([3]; Ethylene Glycol gallate 10 μM): >140.0 s
- Coagulation time Plasmas Heparins Batch 1726 ([3]; Ethylene Glycol gallate 10 μM): >140.0 s
- Coagulation time Control batch n° 80901 Normal ([3]; Ethylene Glycol gallate 25 μM): 124.5 s
- Coagulation time Control batch n° 80901 Path ([3]; Ethylene Glycol gallate 25 μM): 103.3 s
- Coagulation time Plasma (LA) MA 030 ([3]; Ethylene Glycol gallate 25 μM): 103.3 s
- Coagulation time Plasma def f VIIIc ([3]; Ethylene Glycol gallate 25 μM): 73.1 s
- Coagulation time Plasmas Heparins Batch 1635 ([3]; Ethylene Glycol gallate 25 μM): >140.0 s
- Coagulation time Plasmas Heparins Batch 1726 ([3]; Ethylene Glycol gallate 25 μM): >140.0 s
- Coagulation time Control batch n° 80901 Normal ([3]; Ethylene Glycol gallate 50 μM): 88.6 s
- Coagulation time Control batch n° 80901 Path ([3]; Ethylene Glycol gallate 50 μM): 99.6 s
- Coagulation time Plasma (LA) MA 030 ([3]; Ethylene Glycol gallate 50 μM): 66.6 s
- Coagulation time Plasma def f VIIIc ([3]; Ethylene Glycol gallate 50 μM): 44.8 s
- Coagulation time Plasmas Heparins Batch 1635 ([3]; Ethylene Glycol gallate 50 μM): 73.1 s
- Coagulation time Plasmas Heparins Batch 1726 ([3]; Ethylene Glycol gallate 50 μM): >140.0 s
- Coagulation time Control batch n° 80901 Normal ([3]; Ethylene Glycol gallate 75 μM): 46.5 s
- Coagulation time Control batch n° 80901 Path ([3]; Ethylene Glycol gallate 75 μM): 67.4 s
- Coagulation time Plasma (LA) MA 030 ([3]; Ethylene Glycol gallate 75 μM): 50.4 s
- Coagulation time Plasma def f VIIIc ([3]; Ethylene Glycol gallate 75 μM): 38.6 s
- Coagulation time Plasmas Heparins Batch 1635 ([3]; Ethylene Glycol gallate 75 μM): 48.3 s
- Coagulation time Plasmas Heparins Batch 1726 ([3]; Ethylene Glycol gallate 75 μM): 86.6 s
- Coagulation time Control batch n° 80901 Normal ([3]; Ethylene Glycol gallate 100 μM): 38.4 s
- Coagulation time Control batch n° 80901 Path ([3]; Ethylene Glycol gallate 100 μM): 46.2 s
- Coagulation time Plasma (LA) MA 030 ([3]; Ethylene Glycol gallate 100 μM): 47.5 s
- Coagulation time Plasma def f VIIIc ([3]; Ethylene Glycol gallate 100 μM): 38.2 s
- Coagulation time Plasmas Heparins Batch 1635 ([3]; Ethylene Glycol gallate 100 μM): 48.0 s
- Coagulation time Plasmas Heparins Batch 1726 ([3]; Ethylene Glycol gallate 100 μM): 80.0 s
- Coagulation time Control batch n° 80901 Normal ([3]; Ethylene Glycol gallate 200 μM): 35.2 s
- Coagulation time Control batch n° 80901 Path ([3]; Ethylene Glycol gallate 200 μM): 42.5 s
- Coagulation time Plasma (LA) MA 030 ([3]; Ethylene Glycol gallate 200 μM): 46.7 s
- Coagulation time Plasma def f VIIIc ([3]; Ethylene Glycol gallate 200 μM): 37.7 s
- Coagulation time Plasmas Heparins Batch 1635 ([3]; Ethylene Glycol gallate 200 μM): 48.5 s
- Coagulation time Plasmas Heparins Batch 1726 ([3]; Ethylene Glycol gallate 200 μM): 75.4 s
- Coagulation time Control batch n° 80901 Normal ([3]; Ethylene Glycol gallate 300 μM): 34.3 s
- Coagulation time Control batch n° 80901 Path ([3]; Ethylene Glycol gallate 300 μM): 39.6 s
- Coagulation time Plasma (LA) MA 030 ([3]; Ethylene Glycol gallate 300 μM): 44.2 s
- Coagulation time Plasma def f VIIIc ([3]; Ethylene Glycol gallate 300 μM): 37.5 s
- Coagulation time Plasmas Heparins Batch 1635 ([3]; Ethylene Glycol gallate 300 μM): 47.7 s
- Coagulation time Plasmas Heparins Batch 1726 ([3]; Ethylene Glycol gallate 300 μM): 73.7 s
- Coagulation time Control batch n° 80901 Normal ([3]; Ethylene Glycol gallate 400 μM): 32.9 s
- Coagulation time Control batch n° 80901 Path ([3]; Ethylene Glycol gallate 400 μM): 39.6 s
- Coagulation time Plasma (LA) MA 030 ([3]; Ethylene Glycol gallate 400 μM): 43.4 s
- Coagulation time Plasma def f VIIIc ([3]; Ethylene Glycol gallate 400 μM): 37.2 s
- Coagulation time Plasmas Heparins Batch 1635 ([3]; Ethylene Glycol gallate 400 μM): 47.0 s
- Coagulation time Plasmas Heparins Batch 1726 ([3]; Ethylene Glycol gallate 400 μM): 75.1 s
- Coagulation time Control batch n° 80901 Normal ([3]; Ethylene Glycol gallate 500 μM): 32.6 s
- Coagulation time Control batch n° 80901 Path ([3]; Ethylene Glycol gallate 500 μM): 48.5 s
- Coagulation time Plasma (LA) MA 030 ([3]; Ethylene Glycol gallate 500 μM): 43.0 s
- Coagulation time Plasma def f VIIIc ([3]; Ethylene Glycol gallate 500 μM): 37.5 s
- Coagulation time Plasmas Heparins Batch 1635 ([3]; Ethylene Glycol gallate 500 μM): 47.3 s
- Coagulation time Plasmas Heparins Batch 1726 ([3]; Ethylene Glycol gallate 500 μM): 76.1 s
- Coagulation time Control batch n° 80901 Normal [3, 5]: 33.4 s
- Coagulation time Control batch n° 80901 Path [3, 5]: 51.5 s
- Coagulation time Plasma (LA) MA 030 [3, 5]: 42.5 s
- Coagulation time Plasma def f VIIIc [3, 5]: 37.1 s
- Coagulation time Plasmas Heparins Batch 1635 [3, 5]: 47.9 s
- Coagulation time Plasmas Heparins Batch 1726 [3, 5]: 76.3 s
- Coagulation time, f VII def 25% [1]: 35.6 s
- Coagulation times compared with the reference reagent, CK-Prest ([2]; all plasmas of the table, derivative 100 μM): nearest results to those obtained with the reference reagent
- Coagulation time, CCN [2]: 32.7 s
- Coagulation time, CCP [2]: 50.5 s
- Coagulation time, Heparins Batch 0811 [2]: 112.5 s
- Coagulation time, Heparins Batch 1706 [2]: 65.7 s
- Coagulation time, Lupus Batch 021 [2]: 45.7 s
- Coagulation time, Pool N LIK 800 [2]: 37.4 s
- Activity in an APTT coagulation test [4]: became active

Molecule: ethylene diamine gallate [H2N—(CH2)n—NH2 n=2]
- Coagulation time, f VII def 25% [1]: 113.0 s
- Coagulation time, CCN [2]: 138.1 s
- Coagulation time, CCP [2]: 177.9 s
- Coagulation time, Heparins Batch 0811 [2]: >300.0 s
- Coagulation time, Heparins Batch 1706 [2]: 228.4 s
- Coagulation time, Lupus Batch 021 [2]: 167.6 s
- Coagulation time, Pool N LIK 800 [2]: 111.5 s
